Experimental data reported in US20230287051A1, “INHIBITORS OF COMPLEMENT FACTOR C3 AND THEIR MEDICAL USES” (ZP SPV 3 K/S, priority 2020, published 2023).
Numbered stars: 1 amine (or outer) side, 2 acyl side, 3 side chain; on linkers, the order of the positions; unused ones are H or OH. Bridge positions count the residues as written; N and C are the ends. Square brackets hold non-standard residues; d marks the D form. Side chains are listed from the residue outwards. Peptide text beside a SMILES is read from it. * marks the point of attachment. Trp(1-Me) = Cn1cc(C[C@H](N)C(=O)O)c2ccccc21; C18 diacid = O=C(O)CCCCCCCCCCCCCCCCC(=O)*; γGlu = O=C(O)[C@H](CCC(=O)[*:2])N[*:1]; AEEA = NCCOCCOCC(=O)O; CH2 = C([*:1])[*:2]; Sar = CNCC(=O)O

B1: Compound 1 (peptide)
peptide: SEFCIWQDWGEHRCTGAES
modifications: N-terminal acetyl; 1-Me-Trp at 6; Cys4 and Cys14 bridged by methylene thioacetal (-S-CH2-S-); C-terminal amide
notes: Synthetic compstatin analogue; also called Comp No 1
B2: Compound 7 (peptide)
peptide: Ac-SEFCI[Trp(1-Me)]QDW[Sar]EHRC[Sar]E[AEEA][AEEA]K([γGlu-Gly-γGlu-C18 diacid])-NH2
modifications: bridge 4-14 via methylene thioacetal (-S-CH2-S-)
notes: Synthetic compstatin analogue; also called Comp No 7
B3: Compound 12 (peptide)
peptide: Ac-EFCI[Trp(1-Me)]QDW[Sar]EHRCTEA[AEEA][AEEA]K([γGlu-Gly-γGlu-C18 diacid])-NH2
modifications: bridge 3-13 via methylene thioacetal (-S-CH2-S-)
notes: Synthetic compstatin analogue; also called Comp No 12
B4: Compound 15 (peptide)
peptide: Ac-[dY]ICI[Trp(1-Me)]QDW[Sar]EHRCTEGE[AEEA]ESK([γGlu-C18 diacid])-NH2
modifications: bridge 3-13 via methylene thioacetal (-S-CH2-S-)
notes: Synthetic compstatin analogue; also called Comp No 15
B5: Compound 10 (peptide)
peptide: Ac-SEFCI[Trp(1-Me)]QDW[Sar]EHRCTE[AEEA][AEEA]K([γGlu-Gly-γGlu-C18 diacid])-NH2
modifications: bridge 4-14 via methylene thioacetal (-S-CH2-S-)
notes: Synthetic compstatin analogue; also called Comp No 10
B6: Compound 19 (peptide)
peptide: EGSEFCIWQDWGEHRCTEGE
modifications: N-terminal [15-Carboxy-pentadecanoyl]; 1-Me-Trp at 8; Cys6 and Cys16 bridged by methylene thioacetal (-S-CH2-S-); Sar at 12; C-terminal amide
notes: Synthetic compstatin analogue; also called Comp No 19
B7: Compound 9 (peptide)
peptide: Ac-SEFCI[Trp(1-Me)]QDW[Sar]EHRCTEGE[AEEA][AEEA]K([γGlu-Gly-γGlu-C18 diacid])-NH2
modifications: bridge 4-14 via methylene thioacetal ‑S‑CH2‑S‑ (CH2I2, DIPEA)
notes: Synthetic compstatin analogue; also called Comp No 9
B8: Compound 20 (peptide)
peptide: Ac-EGSEFCI[Trp(1-Me)]QDW[Sar]EHRCTEGE[AEEA]ESK([γGlu-C18 diacid])-NH2
modifications: bridge 6-16 via methylene thioacetal (-S-CH2-S-)
notes: Synthetic compstatin analogue; also called Comp No 20
B9: Compound 29 (peptide)
peptide: H-ESGVFCI[Trp(1-Me)]QDW[Sar]EHRCTEGE[AEEA][AEEA]K([γGlu-Gly-γGlu-C18 diacid])-NH2
modifications: bridge 6-16 via methylene thioacetal (-S-CH2-S-)
notes: Synthetic compstatin analogue; also called Comp No 29
B10: Compound 27 (peptide)
peptide: Ac-EGESGFCI[Trp(1-Me)]QDW[Sar]EHRCTEGE[AEEA][AEEA]K([γGlu-Gly-γGlu-C18 diacid])-NH2
modifications: bridge 7-17 via methylene thioacetal (-S-CH2-S-)
notes: Synthetic compstatin analogue; also called Comp No 27
B11: Compound 28 (peptide)
peptide: Ac-GQSAFCI[Trp(1-Me)]QDW[Sar]EHRCTEGE[AEEA][AEEA]K([γGlu-Gly-γGlu-C18 diacid])-NH2
modifications: bridge 6-16 via methylene thioacetal (-S-CH2-S-)
notes: Synthetic compstatin analogue; also called Comp No 28

Target: T1, Human C3 (Complement tech cat #A113c) (human, UniProt P01024 23-1663)
T1 construct: Purified human C3 immobilised by amine coupling in the SPR assay; in the haemolysis assay the C3 is that of diluted human serum; Native C3 is a two-chain (beta and alpha) protein made from one precursor; also called complement factor C3
Experiment: SPR (Biacore X100, 25 C), human C3 amine-coupled on CM5 chip, peptide as analyte, 1:1 Langmuir fit
Settings: not given
Procedure: Surface plasmon resonance (SPR) was used to characterize peptides with respect to their binding affinity (Kd) for C3.
For interaction experiments, a multi-cycle experiment approach was used and performed using a BiacoreX100™ instrument (GE Healthcare) at 25° C. Peptides were injected in increasing concentration series (5 different concentrations and buffer reference) for 180 seconds at a flow rate of 30 μL/min in a buffer consisting of 50 mM Tris buffer at pH 7.4, with 150 mM NaCl and 0.05% Tween20. This was followed by a dissociation period for 10 min.
Sensorgrams were double-referenced (reference surface, blanks) prior to analysis of the kinetic profiles by globally fitting data to a 1:1 Langmuir binding model to obtain association and dissociation rates for calculation of the equilibrium dissociation constant Kd (Table 3). Each peptide was tested at in at least 2 independent experiments.

T1 sequence (P01024 23-1663 limits assumed): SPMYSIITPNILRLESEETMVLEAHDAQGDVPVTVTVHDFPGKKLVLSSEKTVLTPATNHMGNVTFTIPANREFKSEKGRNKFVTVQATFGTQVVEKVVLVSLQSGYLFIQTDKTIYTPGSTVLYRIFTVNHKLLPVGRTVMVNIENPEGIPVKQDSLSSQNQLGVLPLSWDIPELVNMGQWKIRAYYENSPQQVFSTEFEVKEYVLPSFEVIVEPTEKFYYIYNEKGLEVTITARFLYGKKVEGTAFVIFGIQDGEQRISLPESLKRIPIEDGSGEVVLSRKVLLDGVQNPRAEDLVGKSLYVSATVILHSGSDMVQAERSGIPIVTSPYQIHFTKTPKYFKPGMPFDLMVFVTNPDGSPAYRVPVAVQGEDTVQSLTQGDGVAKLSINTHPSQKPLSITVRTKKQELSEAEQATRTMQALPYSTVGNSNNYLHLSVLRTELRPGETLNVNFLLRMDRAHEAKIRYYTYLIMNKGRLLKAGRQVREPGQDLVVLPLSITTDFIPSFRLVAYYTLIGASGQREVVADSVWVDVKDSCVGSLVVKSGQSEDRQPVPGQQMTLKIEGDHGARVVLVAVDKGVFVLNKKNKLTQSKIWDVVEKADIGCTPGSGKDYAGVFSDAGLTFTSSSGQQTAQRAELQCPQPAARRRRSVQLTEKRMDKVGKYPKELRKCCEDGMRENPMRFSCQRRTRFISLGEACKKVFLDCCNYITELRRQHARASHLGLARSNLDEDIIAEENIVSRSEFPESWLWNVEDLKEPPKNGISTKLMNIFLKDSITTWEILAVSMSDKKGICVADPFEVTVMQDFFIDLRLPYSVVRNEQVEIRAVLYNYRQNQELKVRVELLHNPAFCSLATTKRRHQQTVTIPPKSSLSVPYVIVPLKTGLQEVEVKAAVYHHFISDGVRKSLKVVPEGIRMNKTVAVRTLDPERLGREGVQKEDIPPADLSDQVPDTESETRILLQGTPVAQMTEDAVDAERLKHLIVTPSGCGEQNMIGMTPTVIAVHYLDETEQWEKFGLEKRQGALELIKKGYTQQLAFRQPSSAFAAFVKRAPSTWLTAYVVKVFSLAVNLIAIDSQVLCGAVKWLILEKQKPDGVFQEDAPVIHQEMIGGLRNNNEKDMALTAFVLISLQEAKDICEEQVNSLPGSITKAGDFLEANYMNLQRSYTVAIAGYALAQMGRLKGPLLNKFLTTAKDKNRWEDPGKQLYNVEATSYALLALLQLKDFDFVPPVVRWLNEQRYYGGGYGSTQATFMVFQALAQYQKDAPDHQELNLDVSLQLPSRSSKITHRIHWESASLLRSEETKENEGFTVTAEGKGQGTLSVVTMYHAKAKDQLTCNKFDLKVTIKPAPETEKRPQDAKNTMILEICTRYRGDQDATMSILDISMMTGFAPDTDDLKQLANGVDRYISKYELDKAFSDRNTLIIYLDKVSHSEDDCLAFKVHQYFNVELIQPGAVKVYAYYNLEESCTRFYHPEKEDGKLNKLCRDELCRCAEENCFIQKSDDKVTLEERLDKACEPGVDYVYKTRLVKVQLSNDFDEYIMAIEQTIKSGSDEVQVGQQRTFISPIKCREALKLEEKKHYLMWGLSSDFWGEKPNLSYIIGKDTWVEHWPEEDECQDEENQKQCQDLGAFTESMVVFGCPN

Row | Molecule | Kd [nM]
1 | B1 | 25
2 | B2 | 21
3 | B3 | 12
4 | B4 | 16

System: classical complement pathway
Experiment: In vitro haemolysis assay (inhibition of classical complement pathway)
Format: cell-based
Settings: human serum, sensitized sheep RBC, 30 minutes at 37° C., absorbance at 405 nm, n=>2; read-out: IC50, inhibition of hemolysis
Procedure: The in vitro effect of some of the compounds described herein was assessed by measuring their inhibitory effect of the classical complement pathway in a haemolysis assay.
Briefly, compounds described herein and reference compounds were dissolved in DMSO and diluted in Tris/Casein Assay Buffer (10 mM Tris, 145 mM NaCl, 0.5 mM MgCl2, 0.15 mM CaCl2, and 0.1% W/V casein, adjusted to pH 7.4) as 9-point serial dilutions in a 96-well plate. Sensitized sheep red blood cells (RBC) coated with rabbit anti-sheep erythrocyte antiserum (Complement Technology, Inc., TX, USA) were washed in Tris/asein Assay Buffer. 50 μL from each well of diluted compound was added to a 96-well plate containing 50 μL diluted human serum (Complement Technology, Inc., TX, USA) and incubated for 15 minutes at room temperature. The serum dilution factor was optimized for every serum batch to obtain 70-90% of maximal haemolysis using the protocol. Then 50 μL sensitized sheep RBCs were added to all wells ([…]).
After 30 minutes of incubation at 37° C. with gentle agitation, the reaction was stopped by addition of 50 μL Tris STOP Buffer per well (10 mM EDTA, 10 mM Tris, 145 mM NaCl adjusted to pH 7.4). The RBCs were then removed by centrifugation and the resulting supernatant measured for hemolysis by absorbance at 405 nm.
The response was normalized relative to a positive and negative control (vehicle) to calculate the IC50 (nM) from the concentration response curve using the 4-parameter logistic (4PL) nonlinear model for curve fitting (Table 2). All values are based on n=>2 independent determinations.

Row | Molecule | IC50 [nM]
5 | CC[C@H](C)[C@@H]1NC(=O)[C@@H](NC(=O)[C@H](Cc2ccccc2)NC(=O)[C@H](CCC(=O)O)NC(=O)[C@H](CCC(N)=O)NC(=O)[C@H](CCCCN)NC(=O)[C@H](CO)NC(C)=O)CSCSC[C@@H](C(=O)N[C@H](C(=O)N[C@@H](CCC(=O)O)C(=O)NCC(=O)N[C@@H](CCC(=O)O)C(=O)NCCOCCOCC(=O)NCCOCCOCC(=O)N[C@@H](CCCCNC(=O)CC[C@H](NC(=O)CNC(=O)CC[C@H](NC(=O)CCCCCCCCCCCCCCCCC(=O)O)C(=O)O)C(=O)O)C(N)=O)[C@@H](C)O)NC(=O)[C@H](CCCNC(=N)N)NC(=O)[C@H](Cc2c[nH]cn2)NC(=O)[C@H](CCC(=O)O)NC(=O)CN(C)C(=O)[C@H](Cc2c[nH]c3ccccc23)NC(=O)[C@H](CC(=O)O)NC(=O)[C@H](CCC(N)=O)NC(=O)[C@H](Cc2cn(C)c3ccccc23)NC1=O [Compound 26, Ac-SKQEF[C(1)]I[1-Me-Trp]QDW[Sar]EHR[C(1)]TEGE[Peg3][Peg3]-K([17-Carboxy-heptadecanoyl][yGlu]G[yGlu])-NH2] (Ac-SKQEFCI[Trp(1-Me)]QDW[Sar]EHRCTEGE[AEEA][AEEA]K([γGlu-Gly-γGlu-C18 diacid])-NH2; linker 6-16 via CH2) | < 100
6 | CC[C@H](C)[C@H](NC(=O)[C@H](N)Cc1ccc(O)cc1)C(=O)N[C@H]1CSSC[C@@H](C(=O)N(C)[C@H](C(N)=O)[C@@H](C)CC)NC(=O)[C@H](CCCNC(=N)N)NC(=O)[C@H](Cc2c[nH]cn2)NC(=O)[C@H](C)NC(=O)CN(C)C(=O)[C@H](Cc2c[nH]c3ccccc23)NC(=O)[C@H](CC(=O)O)NC(=O)[C@H](CCC(N)=O)NC(=O)[C@H](Cc2cn(C)c3ccccc23)NC(=O)[C@H](C(C)C)NC1=O [Cp40, H-{d}YIC(*)V[1-Me-Trp]QDW[SarJAHRC(*)[N-Me-Ile]-NH2, reference compound] | < 100
7 | Ac-EGSAY[C(1)]I[1-Me-Trp]QDWGEHR[C(1)][Sar]EK[yGlu]-K([17-Carboxy-heptadecanoyl][yGlu][Peg3][Peg3])-NH2 [Compound 3] | < 500
8 | Ac-EQEVF[C(1)]I[1-Me-Trp]QDW[Sar]EHR[C(1)]TEGE[Peg3][Peg3]-K([17-Carboxy-heptadecanoyl][yGlu]G[yGlu])-NH2 [Compound 22] | < 100
9 | Ac-GEF[C(1)]I[1-Me-Trp]QDWGEHR[C(1)][Sar]EAE[Peg3][Peg3]-K([17-Carboxy-heptadecanoyl][yGlu]G[yGlu])-NH2 [Compound 6] | < 500
10 | Ac-KSGEF[C(1)]I[1-Me-Trp]QDW[Sar]EHR[C(1)]TEGE[Peg3][Peg3]-K([17-Carboxy-heptadecanoyl][yGlu]G[yGlu])-NH2 [Compound 21] | < 100
11 | Ac-SEFC(2)I[1-Me-Trp]QDWGEHRC(2)TGAES-NH2 [Compound 31] | < 250
12 | Ac-SEF[C(1)]IWQDW[Sar]EHR[C(1)]TEGE[Peg3]ES-K([17-Carboxy-heptadecanoyl][yGlu])-NH2 [Compound 16] | < 1000
13 | Ac-SEF[C(1)]IYQDW[Sar]EHR[C(1)]TEGE[Peg3]ES-K([17-Carboxy-heptadecanoy!][yGlu])-NH2 [Compound 17] | < 500
14 | Ac-SEF[C(1)]I[1-Me-Trp]QDWGEHR[C(1)]TEGE[Peg3]ES-K([17-Carboxy-heptadecanoyl]-[yGlu]-NH2 [Compound 5] | < 500
15 | Ac-SEF[C(1)]I[1-Me-Trp]QDWGEHR[C(1)]TGAES[Peg3][Peg3]-K([17-Carboxy-heptadecanoyl][yGlu]G[yGlu])-NH2 [Compound 14] | < 250
16 | Ac-SEF[C(1)]I[1-Me-Trp]QDWGEHR[C(1)][Sar]EGA-K([17-Carboxy-heptadecanoyl]-[yGlu]G[Peg3][yGlu][Peg3]-NH2 [Compound 4] | < 500
17 | Ac-SEF[C(1)]I[1-Me-Trp]QDW[SarJAHR[C(1)]TEGE[Peg3]ES-K([17-Carboxy-heptadecanoyl][yGlu])-NH2 [Compound 13] | < 250
18 | Ac-SEF[C(1)]I[1-Me-Trp]QDW[Sar]EHR[C(1)][Sar]E[Peg3][Peg3]-K([17-Carboxy-heptadecanoyl]-[yGlu]G[yGlu]-NH2 [Compound 8] | < 500
19 | Ac-SEF[C(1)]I[[1-Me-Trp]QDW[Sar]EHR[C(1)]TEGE[Peg3]ES-K([17-Carboxy-heptadecanoyl][yGlu])-NH2 [Compound 11] | < 250
20 | Ac-SEY[C(1)]I[1-Me-Trp]QDW[Sar]EHR[C(1)]TEGE[Peg3]ES-K([17-Carboxy-heptadecanoyl][yGlu])-NH2 [Compound 18] | < 250
21 | Ac-YEQAF[C(1)]I[1-Me-Trp]QDW[Sar]EHR[C(1)]TEGE[Peg3]ES-K([17-Carboxy-heptadecanoyl][yGlu]G[yGlu])-NH2 [Compound 30] | < 100

Target: T1, Human C3 (Complement tech cat #A113c)
Experiment: cell-based or functional assay
Settings: not given

Row | Molecule | IC50 [nM], in vitro inhibition of hemolysis (classical complement pathway; human serum, sensitized sheep RBC) [nM]
22 | B1 | < 100
23 | B2 | < 500
24 | B5 | < 250
25 | B3 | < 100
26 | B4 | < 250
27 | B6 | < 250
28 | B7 | < 250
29 | B8 | < 250
30 | B9 | < 100
31 | B10 | < 100
32 | B11 | < 100
